# Laboratory results taken from patent publication US20210128554A1, “ANTI-FLAVIVIRIDAE ACTIVITY OF ANTI-RETROVIRAL NON-NUCLEOSIDE (NNRTIS) AND NUCLEOSIDE REVERSE TRANSCRIPTASE INHIBITORS (NNRTIS)” (priority 2016, published 2021).
# Test system: Zika virus
# Test: ZIKV copy numbers released by primary human fetal astrocytes treated with NNRTIs (Real-time Q-RT-PCR)
# Type: cell-based
# Conditions: ZIKV 0.1 MOI, 5, 10, and 25 μM at 24, 48, 72 hrs, culture media at 96 hrs
# Experimental: FIG. 6 is a graph showing that Zika virus replication is suppressed by antiretroviral HIV-1 non-nucleoside reverse transcriptase inhibitors (NNRTIs) in primary astrocytes: Primary human fetal astrocytes were plated in 6 well tissue culture dishes and infected with ZIKV at 0.1 MOI. At 24, 48, and 72 hrs post-infections, cells were treated with increasing concentrations of anti-retroviral non-nucleoside reverse transcriptase inhibitors Rilpivirine, Efavirenz, and Etravirine at 5, 10, and 25 μM concentrations. Culture media of the infected cells were collected at 96 hrs post-infections and subjected to Real-time Q-RT-PCR for the detection and quantification of ZIKV copy numbers released by infected cells.
row,Compound,Zika virus replication (ZIKV copy numbers released by infected cells)
1,O=C1Nc2ccc(Cl)cc2[C@@](C#CC2CC2)(C(F)(F)F)O1 [Efavirenz],suppressed
2,Cc1cc(C#N)cc(C)c1Oc1nc(Nc2ccc(C#N)cc2)nc(N)c1Br [Etravirine],suppressed
